Reference: patent US10736864B2, “Immunotherapeutic agent” (Immodulon Therapeutics Limited, priority 2016, dated 2020)

Assays:
[1] = test system: splenocytes stimulated in vitro with ovalbumin; test: In vitro splenocyte culture from treated mice, ovalbumin stimulation (cytokine ELISA); type: in vivo, BALB/c mice; conditions: FIG. 3B; mice treated 5 μg s.c.; allergen (ovalbumin) stimulation; vs buffer
[2] = test system: allergic mice challenged with ovalbumin; test: Murine model of allergic pulmonary inflammation: treatment studies (BAL cells and cytokines); type: in vivo, BALB/c mice; conditions: vs vehicle; for number of eosinophils recovered in the BAL fluid / numbers of macrophages in BAL fluid / total cellular infiltrate in BAL fluid / IL-5 concentrations in the BAL fluid / IL-10 concentrations in the BAL fluid: Experiments 5 and 6, lipid 5 μg s.c.; for number of eosinophils recovered in the BAL fluid / numbers of macrophages in BAL fluid / total cellular infiltrate in BAL fluid: M. vaccae 0.1 mg s.c.
[3] = test system: freshly isolated murine peritoneal macrophages; test: Sulforhodamine B (SRB) macrophage cell viability / cytotoxicity assay
Method: Sulforhodamine B (SRB) was used to assess cytotoxic effects of various concentrations of 10(Z)-hexadecenoic acid (10 μM, 50 μM, 100 μM, 250 μM, 500 μM, 1000 μM) after 0, 6, 12, 24, 48, and 72 h of incubation with freshly isolated murine peritoneal macrophages. Percent control growth is expressed as % viability and is a ratio of the amount of growth that occurred with treatment over the amount of growth that occurred in media. […] Data are expressed as mean±SEM of 3-7 mice per condition.
Cytotoxicity was determined using the sulforhodamine B (SRB) colorimetric assay, as previously described (Vichai and Kirtikara, 2006). Briefly, without removing the culture media, cells were fixed by adding cold trichloroacetic acid and incubated at 4° C. for 1 h. The plates were washed with slow-running tap water and set out to dry overnight. Then, 0.057% SRB (Cat. No. AC333130050, Fisher, Pittsburgh, Pa., USA), solubilized in 10 mMTris (Cat. No. BP153, Fisher), was added to each well. After 30 min, plates were washed with 1% acetic acid and set out to dry overnight. SRB was measured at 490 nm on a Synergy HT microplate reader (Part Number 7091000, Biotek, Winooski, Vt., USA). Cell viability was expressed as the ratio of experimental and control growth.

[4] = test system: freshly isolated murine peritoneal macrophages; test: Proinflammatory cytokine and chemokine ligand mRNA levels (RNAseq) in LPS-stimulated peritoneal macrophages; type: cell-based
Method: This can be measured using RNAseq analysis of freshly isolated murine peritoneal macrophages stimulated with LPS, in the presence or absence of 10(Z)-hexadecenoic acid. […] Compounds of the invention are therefore useful in inhibiting the proinflammatory cascade that contributes to the pathology of sepsis.
This difference was observable as early as 6 h after LPS challenge, and was sustained for at least 24 h. The effect also appeared to be concentration and time dependent. The lowest concentration of 0.4 μM was ineffective at 6 h, but reduced IL-6 secretion to 40% of control levels at 24 h. This time and concentration dependence may indicate that a receptor-mediated transcriptional change is occurring. In contrast to the effects of 10(Z)-hexadecenoic acid on LPS-induced IL-6 secretion, it had no effect of IL-6 secretion by itself (FIG. 4D). A transcriptional change was confirmed by measurement of pro-inflammatory cytokine and chemokine ligand mRNA levels in macrophages pre-treated with 10(Z)-hexadecenoic acid for 1 h prior to LPS treatment (Table 2).

[5] = test system: freshly isolated murine peritoneal macrophages; test: LPS-induced IL-6 secretion in freshly isolated peritoneal macrophages (ELISA); type: cell-based, BALB/c mice
Method: Experiment 7 was carried out to resolve if 10(Z)-hexadecenoic acid has a direct effect on immune cells. Macrophages were selected for this study on account of their ubiquity and diverse role in immune processes. To simulate inflammation, freshly isolated mouse peritoneal macrophages were challenged with lipopolysaccharide (LPS; 1 μg/mL) ex vivo.
Murine peritoneal macrophages were isolated as previously described (Zhang, X. et al. (2008)). Briefly, mice received one 1 ml i.p. injection of 3% thioglycollate medium (Cat. No. 9000-294, VWR, Radnor, Pa., USA). Ninety-six hours later, macrophages were collected in DPBS (Cat. No. 14190136, Invitrogen, Carlsbad, Calif., USA). Cells were centrifuged and resuspended in DMEM/F-12 (Cat. No. 10565018, Invitrogen) supplemented to be 10% (v/v) fetal bovine serum (Cat. No. 16000036, Invitrogen) and 1% penicillin/streptomycin (Cat. No. 15140148, Invitrogen). One mouse yielded enough cells for one experimental replicate. 1×10^5 cells/well were allowed to adhere for 1.5 h before being washed with DPBS. 10(Z)-hexadecenoic acid was dissolved in DMEM/F-12 with 0.5% (v/v) dimethyl sulfoxide (Cat. No. D8418, Sigma-Aldrich). The macrophages were incubated with either 10(Z)-hexadecenoic acid (0.4 μM, 4 μM, 20 μM, 100 μM, 500 μM, 1000 μM) or DMEM/F-12 for 1 h before being stimulated with 1 μg/ml lipopolysaccharide (serotype 0127:B8, Sigma-Aldrich, St. Louis, Mo., USA). Culture supernatants were collected at 6, 12, and 24 h post-stimulation.
Cell culture supernatants from freshly isolated peritoneal macrophages were diluted 1:200, and IL-6 was measured using sandwiched ELISA (Cat. No. 431304, Biolegend, San Diego, Calif., USA). All samples were measured in duplicate.

`CCCCC/C=C\CCCCCCCCC(=O)OCC(COC(=O)CCCCCCCC/C=C\CCCCC)OC(=O)CCCCCCCC/C=C\CCCCC` [1,2,3-tri[Z-10-hexadecenoyl]glycerol] was tested, and the “IL-5 levels in the supernatant of splenocytes” value [1] was “decrease”, the “IL-10 levels in the supernatant of splenocytes” value [1] was “increase” and the “number of eosinophils recovered in the BAL fluid” value [2] was “reduction”. The “numbers of macrophages in BAL fluid” value [2] was “not increased”, the “total cellular infiltrate in BAL fluid” value [2] was “reduction” and the “IL-5 concentrations in the BAL fluid” value [2] was “decrease”. The “IL-10 concentrations in the BAL fluid” value [2] was “increase”.
For `CCCCC/C=C\CCCCCCCCC(=O)O` [10(Z)-hexadecenoic acid], the viable macrophages ([3]; 1 mM, at most time points (0-72 h)) was “less than 40%”, the macrophage viability ([3]; all other concentrations (10-500 μM), vs media controls) was “as viable as or more viable than media controls” and the “numbers of neutrophils in BAL fluid” value ([2]; Experiment 6) was “did not induce increases”. For the same compound, the “number of eosinophils recovered in the BAL fluid” value [2] was “significant reduction”, the “numbers of macrophages in BAL fluid” value [2] was “did not induce increases” and the “total cellular infiltrate in BAL fluid” value [2] was “significant reduction”. The “IL-5 concentrations in the BAL fluid” value [2] was “decrease”, the “IL-10 concentrations in the BAL fluid” value [2] was “increase” and the “Ccl17 mRNA Mean #Reads s148.2 + LPS” value ([4]; preincubation then LPS, n = 3, LPS alone 24) was 3. For the same compound, the “II11 mRNA Mean #Reads s148.2 + LPS” value ([4]; preincubation then LPS, n = 3, LPS alone 26) was 5, the “Ccl22 mRNA Mean #Reads s148.2 + LPS” value ([4]; preincubation then LPS, n = 3, LPS alone 327) was 117 and the “Ccl4 mRNA Mean #Reads s148.2 + LPS” value ([4]; preincubation then LPS, n = 3, LPS alone 603) was 305. For the same compound, the “II12a mRNA Mean #Reads s148.2 + LPS” value ([4]; preincubation then LPS, n = 3, LPS alone 714) was 268, the “Ccl6 mRNA Mean #Reads s148.2 + LPS” value ([4]; preincubation then LPS, n = 3, LPS alone 810) was 368 and the “Ccl7 mRNA Mean #Reads s148.2 + LPS” value ([4]; preincubation then LPS, n = 3, LPS alone 1182) was 441. The “II6 mRNA Mean #Reads s148.2 + LPS” value ([4]; preincubation then LPS, n = 3, LPS alone 1302) was 305, the “Tnf mRNA Mean #Reads s148.2 + LPS” value ([4]; preincubation then LPS, n = 3, LPS alone 2098) was 1023 and the “Cxcl2 mRNA Mean #Reads s148.2 + LPS” value ([4]; preincubation then LPS, n = 3, LPS alone 4726, functional homologue of human IL-8) was 2680. The “Ccl2 mRNA Mean #Reads s148.2 + LPS” value ([4]; preincubation then LPS, n = 3, LPS alone 5656) was 2234, the “Ccl3 mRNA Mean #Reads s148.2 + LPS” value ([4]; preincubation then LPS, n = 3, LPS alone 6693) was 4067 and the “II1b mRNA Mean #Reads s148.2 + LPS” value ([4]; preincubation then LPS, n = 3, LPS alone 15,957) was 5349. For the same compound, the “II1a mRNA Mean #Reads s148.2 + LPS” value ([4]; preincubation then LPS, n = 3, LPS alone 16533) was 8500, the “Ccl2 mRNA Effect” value ([4]; vs LPS alone) was “↓” and the “Ccl2 mRNA Fold-change” value ([4]; vs LPS alone) was 0.39. The “Ccl2 mRNA Log2 Fold-change” value ([4]; vs LPS alone) was −1.34, the “Ccl3 mRNA Effect” value ([4]; vs LPS alone) was “↓” and the “Ccl3 mRNA Fold-change” value ([4]; vs LPS alone) was 0.61. For the same compound, the “Ccl3 mRNA Log2 Fold-change” value ([4]; vs LPS alone) was −0.72, the “Ccl4 mRNA Effect” value ([4]; vs LPS alone) was “↓” and the “Ccl4 mRNA Fold-change” value ([4]; vs LPS alone) was 0.51. For the same compound, the “Ccl4 mRNA Log2 Fold-change” value ([4]; vs LPS alone) was −0.98, the “Ccl6 mRNA Effect” value ([4]; vs LPS alone) was “↓” and the “Ccl6 mRNA Fold-change” value ([4]; vs LPS alone) was 0.45. For the same compound, the “Ccl6 mRNA Log2 Fold-change” value ([4]; vs LPS alone) was −1.14, the “Ccl7 mRNA Effect” value ([4]; vs LPS alone) was “↓” and the “Ccl7 mRNA Fold-change” value ([4]; vs LPS alone) was 0.37. The “Ccl7 mRNA Log2 Fold-change” value ([4]; vs LPS alone) was −1.42, the “Ccl17 mRNA Effect” value ([4]; vs LPS alone) was “↓” and the “Ccl17 mRNA Fold-change” value ([4]; vs LPS alone) was 0.12. The “Ccl17 mRNA Log2 Fold-change” value ([4]; vs LPS alone) was −3.08, the “Ccl22 mRNA Effect” value ([4]; vs LPS alone) was “↓” and the “Ccl22 mRNA Fold-change” value ([4]; vs LPS alone) was 0.36. The “Ccl22 mRNA Log2 Fold-change” value ([4]; vs LPS alone) was −1.48, the “Cxcl2 mRNA Effect” value ([4]; vs LPS alone) was “↓” and the “Cxcl2 mRNA Fold-change” value ([4]; vs LPS alone) was 0.57. The “Cxcl2 mRNA Log2 Fold-change” value ([4]; vs LPS alone) was −0.82, the “II1a mRNA Effect” value ([4]; vs LPS alone) was “↓” and the “II1a mRNA Fold-change” value ([4]; vs LPS alone) was 0.51. For the same compound, the “II1a mRNA Log2 Fold-change” value ([4]; vs LPS alone) was −0.96, the “II1b mRNA Effect” value ([4]; vs LPS alone) was “↓” and the “II1b mRNA Fold-change” value ([4]; vs LPS alone) was 0.34. For the same compound, the “II1b mRNA Log2 Fold-change” value ([4]; vs LPS alone) was −2.16, the “II6 mRNA Effect” value ([4]; vs LPS alone) was “↓” and the “II6 mRNA Fold-change” value ([4]; vs LPS alone) was 0.23. For the same compound, the “II6 mRNA Log2 Fold-change” value ([4]; vs LPS alone) was −2.09, the “II11 mRNA Effect” value ([4]; vs LPS alone) was “↓” and the “II11 mRNA Fold-change” value ([4]; vs LPS alone) was 0.20. For the same compound, the “II11 mRNA Log2 Fold-change” value ([4]; vs LPS alone) was −2.35, the “II12a mRNA Effect” value ([4]; vs LPS alone) was “↓” and the “II12a mRNA Fold-change” value ([4]; vs LPS alone) was 0.37. For the same compound, the “II12a mRNA Log2 Fold-change” value ([4]; vs LPS alone) was −1.42, the “Tnf mRNA Effect” value ([4]; vs LPS alone) was “↓” and the “Tnf mRNA Fold-change” value ([4]; vs LPS alone) was 0.49. The “Tnf mRNA Log2 Fold-change” value ([4]; vs LPS alone) was −1.04, the “LPS-induced IL-6 secretion” value ([5]; 0.4 μM, 6 h after LPS) was “ineffective” and the “LPS-induced IL-6 secretion” value ([5]; 0.4 μM, 24 h after LPS) was 40 % of control levels. The “LPS-induced IL-6 secretion” value ([5]; 1 h preincubation (0.4-1000 μM), LPS 1 μg/mL, 6, 12, 24 h, vs media alone) was “secreted less IL-6” and the “IL-6 secretion by itself” value ([5]; absence of LPS, FIG. 4D) was “no effect”.
